Key:
[1] = system: stress-induced hyperthermia in rats; experiment: Attenuation of stress-induced hyperthermia in rats; assay type: in vivo, rat; conditions: male Fischer F-344 rats, p.o., 60 min pretreatment, T2-T1 rectal temperature
Source text: Attenuation of Stress-Induced Hyperthermia in Rats
In many anxiety disorders, hyperthermia occurs as part of the pathology and is considered a symptom of the disease. Compounds which attenuate stress-induced hyperthermia in animals are believed to be useful in treating anxiety disorders in humans.
The conventional and minimally-invasive method for analyzing stress-induced hyperthermia is by measuring body temperature, and stress-induced increases in body temperature, via rectal thermometer. Male Fischer F-344; rats (Harlan, Indianapolis, Ind., USA) weighing between 275-350; g are tested. All animals are individually-housed with food and automated water available ad libitum, and maintained on a 12; h light/dark cycle (lights on at 06:00). Animals are fasted for approximately 12-18; hours before the experiment, which is conducted during the light phase. […]
After the pretreatment period, rats are taken individually to a brightly lit adjacent room where baseline body temperatures are determined by insertion of a rectal probe lubricated with mineral oil. Body temperature is assessed using a PHYSITEMP BAT-12® Microprobe Thermometer with a PHYSITEMP RET-2® rat rectal probe (Physitemp Instruments Inc., Clifton, N.J., USA). […] Ten minutes later a second body temperature measurement is recorded (T2). […]

human mGluR5 = biological target: T1, human mGluR5 (Homo sapiens, UniProt P41594); experiment: Functional in vitro activity at human mGluR5 receptors (FLIPR calcium assay, antagonism of glutamate EC90 response); assay type: cell-based; conditions: AV-12 cells expressing recombinant human mGluR5a and rat EAAT1, relative IC50, read-out: IC50 measured at mGluR5
T1 construct: expressed in transfected cells; host or cells: AV-12 cells (ATCC) containing the rat EAAT1 glutamate transporter
T1 sequence (P41594 21-1180 isoform P41594-2 limits assumed): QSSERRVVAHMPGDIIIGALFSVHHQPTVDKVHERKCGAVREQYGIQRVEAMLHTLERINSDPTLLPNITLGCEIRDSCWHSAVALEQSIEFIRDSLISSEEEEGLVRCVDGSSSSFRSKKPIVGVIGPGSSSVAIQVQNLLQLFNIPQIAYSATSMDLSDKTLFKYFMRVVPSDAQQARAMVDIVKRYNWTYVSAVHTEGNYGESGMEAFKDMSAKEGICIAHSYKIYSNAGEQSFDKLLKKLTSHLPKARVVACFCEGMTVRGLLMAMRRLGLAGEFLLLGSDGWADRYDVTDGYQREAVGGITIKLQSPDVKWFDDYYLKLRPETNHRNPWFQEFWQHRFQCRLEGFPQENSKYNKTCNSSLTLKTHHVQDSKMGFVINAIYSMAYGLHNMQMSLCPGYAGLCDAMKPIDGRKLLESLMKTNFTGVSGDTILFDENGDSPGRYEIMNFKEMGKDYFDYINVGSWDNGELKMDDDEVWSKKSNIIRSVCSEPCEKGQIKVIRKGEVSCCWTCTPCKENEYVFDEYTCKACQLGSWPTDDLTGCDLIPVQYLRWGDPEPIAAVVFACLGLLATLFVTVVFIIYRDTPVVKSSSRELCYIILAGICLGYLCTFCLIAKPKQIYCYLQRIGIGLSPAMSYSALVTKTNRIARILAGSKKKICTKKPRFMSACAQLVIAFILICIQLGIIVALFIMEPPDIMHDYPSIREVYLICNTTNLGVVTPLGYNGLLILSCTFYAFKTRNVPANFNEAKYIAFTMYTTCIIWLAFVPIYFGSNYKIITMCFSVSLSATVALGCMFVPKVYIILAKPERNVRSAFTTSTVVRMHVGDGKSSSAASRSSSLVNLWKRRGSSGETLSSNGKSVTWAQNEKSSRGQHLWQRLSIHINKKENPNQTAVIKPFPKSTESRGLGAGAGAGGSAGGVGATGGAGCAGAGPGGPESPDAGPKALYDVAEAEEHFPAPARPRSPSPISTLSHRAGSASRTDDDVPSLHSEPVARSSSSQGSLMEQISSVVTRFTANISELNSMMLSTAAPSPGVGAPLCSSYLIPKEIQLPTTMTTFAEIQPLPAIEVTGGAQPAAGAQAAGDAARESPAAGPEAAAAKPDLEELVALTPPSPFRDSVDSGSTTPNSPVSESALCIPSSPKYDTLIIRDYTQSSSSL
Source text: Functional in Vitro Activity at Human mGluR5; and mGluR1; Receptors
The activation of G-protein coupled receptors (GPCRS) that are coupled to GTP-binding protein alpha q (Gq proteins) results in a change in intracellular calcium concentration. This functional response can be measured in a kinetic assay using calcium-sensitive dyes and a fluorescent imaging plate reader using a standard technique known as FLIPR (MDS Analytical Technologies, Sunnyvale, Calif.). Stable cell line preparation and assay techniques are adapted from Kingston, A. E., et. al. (1995) Neuropharmacology 34: 887-894. […]
For the functional assays, cells are seeded in growth medium lacking selection antibiotics at a density of 65K per well into 96-well, black/clear bottom, poly-D-lysine coated microplates and incubated for 18-20; hours prior to the experiment. […] The antagonist effects of compounds are quantified in the FLIPR instrument in 10-point dose curves by comparing the peak fluorescent responses to the agonist glutamate in the presence and absence of compound. Specifically, the compound effect is measured as maximal minus minimal peak heights in relative fluorescent units corrected for basal fluorescence as measured in the absence of glutamate. […]

SMILES	T35 dose (dose producing a 35% reduction in stress-induced hyperthermic response relative to vehicle) [1] [mg/kg]	IC50 (human mGluR5) [nM]	melting point [°C]
CCc1cccc(-c2c(-c3ccc4nn(C)cc4c3)nsc2NC(=O)[C@@H]2C[C@H]2C)n1.Cl [Example 2, (1R,2R)-2-methyl-cyclopropanecarboxylic acid [4-(6-ethyl-pyridin-2-yl)-3-(2-methyl-2H-indazol-5-yl)-isothiazol-5-yl]-amide hydrochloride]	3.0	9.5	–
CCc1cccc(-c2c(-c3ccc4nn(C)cc4c3)nsc2NC(=O)[C@@H]2C[C@H]2C)n1 [Example 22, (1R,2R)-2-methyl-cyclopropanecarboxylic acid [4-(6-ethyl-pyridin-2-yl)-3-(2-methyl-2H-indazol-5-yl)-isothiazol-5-yl]-amide]	–	–	159.4
CC(C)c1cccc(-c2c(-c3ccc4nn(C)cc4c3)nsc2NC(=O)[C@@H]2C[C@H]2C)n1 [Example 23, (1R,2R)-2-methyl-cyclopropanecarboxylic acid [4-(6-isopropyl-pyridin-2-yl)-3-(2-methyl-2H-indazol-5-yl)-isothiazol-5-yl]-amide]	–	–	142 to 144

— patent US7932274B2, “3-indazolyl-4-pyridylisothiazoles” (Eli Lilly and Company, priority 2008, dated 2011)
